Several values for one entry are separate records, joined by “and”; a condition that tells them apart may be missing. Equal entries are not always repeated.
Tested on: WT ELIC
Test: Fluorescence stopped-flow liposomal Tl+ flux assay, symmetric liposomes
Type: biochemical, Erwinia chrysanthemi
Settings: for Avg (stopped-flow fluorescence quenching rate): average of experiments; for Rate (stopped-flow fluorescence quenching rate): single experiments
Procedure: The fluorescence sequential-mixing stopped-flow liposomal flux measurements were carried using an SX20 stopped-flow spectrofluorometer (Applied Photophysics) and Pro-Data SX software[13],[30]. 7.5 mg of the respective lipid mixture (POPC, 1:1 POPC: POPE, 1:1 POPC:POPG, 3:1 POPC:POPE, 3:1 POPC:POPG, 2:1:1 POPC:POPE:POPG) was dried in a glass vial to a thin film under a constant stream of N2. The lipids were then further dried under vacuum in a desiccator overnight. The following day the lipids were hydrated in 500 µl of reconstitution buffer (100 mM NaNO3, 10 mM HEPES, pH 7) (Buffer R), 250 µl of 75 mM 8-Aminonaphthalene-1,3,6-Trisulfonic Acid (ANTS, ThermoFisher Scientific) in buffer R, and doped with ~18 mg of CHAPS (Anatrace). The mixture was vortexed and then sonicated with heat until completely solubilized. Following the sonication, the solution was brought to RT then 3.5 µl of 6.7 mg/ml ELIC in Buffer A with 0.02% DDM was added (3 µg per mg of lipid). This combined solution was incubated at RT for 30 min, followed by the addition of 1 ml of 1:1 v/v SM-2 BioBeads in Buffer R and an additional 250 µl of 75 mM ANTS in Buffer R. This mixture was incubated at RT for 2.5 hr with gentle mixing. The liposome suspension was then extruded with an Avanti mini-extruder and 0.1 µm membrane (30×). The extruded liposomes were stored at 13 °C overnight with gentle rotation. The next day, the liposomes were diluted to 2.5 mL using assay buffer (140 mM NaNO3, 10 mM HEPES, pH 7) (Stopped-flow Buffer A), loaded into a PD-10 desalting column (Cytiva), eluted with 3 mL of Stopped-flow Buffer A and subsequently diluted 5-fold with Stopped-flow Buffer A.
Using propylamine as the agonist, the assay and analysis was carried out as previously described[13],[30]. ELIC-containing liposomes were first mixed 1:1 with Buffer A containing 2× the concentration of propylamine. After a variable delay of 10 ms to 25 s, the sample was then mixed 1:1 with a quenching buffer (90 mM NaNO3, 50 mM TlNO3, 10 mM HEPES, pH 7), and ANTS fluorescence (ex. 360 nm, fluorescence above 420 nm) was recorded for 1 s. For each delay time, 5 repeat measurements were obtained. The data were collected using Applied Photophysics Pro-Data SX software. The fluorescence quenching traces were fit to a stretched exponential (Eq. 2a) and the rate of Tl^+ influx was determined at 2 ms (Eq. 2b).2a Ft=F∞+F0−F∞⋅e^−t/τ^β 2b kt=β/τ⋅2ms/τ^(β−1) where Ft, F∞, F0 are the fluorescence at time t, final fluorescence and initial fluorescence. τ is the time constant, β the stretched exponential factor, and kt the calculated rate of Tl^+ influx at 2 ms. The time course of desensitization was also fit to a double exponential and a weighted time constant was calculated as was done for the patch-clamp data using Origin 2019b. All replicates were taken from independent samples.

[1] = WT in PC liposomes, 0.3 mM PA, delay time 0
[2] = WT in PC liposomes, 1 mM PA, delay time 0

With `CCCN` [propylamine] the “Avg (stopped-flow fluorescence quenching rate)” value (“Avg” below) (WT in 2:1:1 PC:PE:PG liposomes, 3 mM PA, delay time 5) was 145.791, the “Avg” value (WT in 2:1:1 PC:PE:PG liposomes, 3 mM PA, delay time 10) was 107.502 and the “Avg” value (WT in 2:1:1 PC:PE:PG liposomes, 3 mM PA, delay time 25) was 38.6642. For the same compound, the “Rate (stopped-flow fluorescence quenching rate)” value (WT in 2:1:1 PC:PE:PG liposomes, 10 mM PA, delay time 0) was 0, the “Avg” value (WT in 2:1:1 PC:PE:PG liposomes, 10 mM PA, delay time 0.025) was 169.086 and the “Avg” value (WT in 2:1:1 PC:PE:PG liposomes, 10 mM PA, delay time 0.05) was 180.798. For the same compound, the “Avg” value (WT in 2:1:1 PC:PE:PG liposomes, 10 mM PA, delay time 0.05 [sic] (between 0.25 and 1)) was 198.043, the “Rate (stopped-flow fluorescence quenching rate)” value (WT in 2:1:1 PC:PE:PG liposomes, 10 mM PA, delay time 0.05 [sic] (between 0.25 and 1), listed as PA) was 249.635 and 148.719 and 195.774 and the “Avg” value (WT in 2:1:1 PC:PE:PG liposomes, 10 mM PA, delay time 0.1) was 165.345. For the same compound, the “Avg” value (WT in 2:1:1 PC:PE:PG liposomes, 10 mM PA, delay time 0.25) was 213.572, the “Rate (stopped-flow fluorescence quenching rate)” value (WT in 2:1:1 PC:PE:PG liposomes, 10 mM PA, delay time 0.25, listed as PA) was 256.17 and 144.253 and 240.291 and the “Avg” value (WT in 2:1:1 PC:PE:PG liposomes, 10 mM PA, delay time 1) was 169.644. For the same compound, the “Rate (stopped-flow fluorescence quenching rate)” value (WT in 2:1:1 PC:PE:PG liposomes, 10 mM PA, delay time 1, listed as PA) was 228.219 and 122.935 and 157.778, the “Avg” value (WT in 2:1:1 PC:PE:PG liposomes, 10 mM PA, delay time 2.5) was 155.074 and the “Avg” value (WT in 2:1:1 PC:PE:PG liposomes, 10 mM PA, delay time 5) was 103.359. For the same compound, the “Avg” value (WT in 2:1:1 PC:PE:PG liposomes, 10 mM PA, delay time 10) was 60.9022, the “Avg” value (WT in 2:1:1 PC:PE:PG liposomes, 10 mM PA, delay time 25) was 14.6606 and the “Rate (stopped-flow fluorescence quenching rate)” value (WT in 2:1:1 PC:PE:PG liposomes, 10 mM PA, delay time 25, listed as PA) was 13.7363 and 15.821 and 14.4245. The “Rate (stopped-flow fluorescence quenching rate)” value (WT in 2:1:1 PC:PE:PG liposomes, 30 mM PA, delay time 0) was 0, the “Avg” value (WT in 2:1:1 PC:PE:PG liposomes, 30 mM PA, delay time 0.025) was 74.8381 and the “Avg” value (WT in 2:1:1 PC:PE:PG liposomes, 30 mM PA, delay time 0.05) was 63.4545. For the same compound, the “Avg” value (WT in 2:1:1 PC:PE:PG liposomes, 30 mM PA, delay time 0.1) was 63.448, the “Avg” value (WT in 2:1:1 PC:PE:PG liposomes, 30 mM PA, delay time 0.25) was 66.7765 and the “Avg” value (WT in 2:1:1 PC:PE:PG liposomes, 30 mM PA, delay time 0.5) was 62.7383. For the same compound, the “Avg” value (WT in 2:1:1 PC:PE:PG liposomes, 30 mM PA, delay time 1) was 67.601, the “Avg” value (WT in 2:1:1 PC:PE:PG liposomes, 30 mM PA, delay time 2.5) was 40.183 and the “Avg” value (WT in 2:1:1 PC:PE:PG liposomes, 30 mM PA, delay time 5) was 15.7901. For the same compound, the “Avg” value (WT in 2:1:1 PC:PE:PG liposomes, 30 mM PA, delay time 10) was 23.9739, the “Avg” value (WT in 2:1:1 PC:PE:PG liposomes, 30 mM PA, delay time 25) was 10.034 and the “Rate (stopped-flow fluorescence quenching rate)” value (WT in 2:1:1 PC:PE:PG liposomes, 30 mM PA, delay time 25, listed as PA) was 8.132 and 11.9359. The “Avg” value [1] was 0, the “Rate (stopped-flow fluorescence quenching rate)” value [1] was 0 and the “Avg” value (WT in PC liposomes, 0.3 mM PA, delay time 0.01) was 0.08537. The “Rate (stopped-flow fluorescence quenching rate)” value (WT in PC liposomes, 0.3 mM PA, delay time 0.01, listed as PA) was 0.07068 and 0.08871 and 9.67E-02, the “Avg” value (WT in PC liposomes, 0.3 mM PA, delay time 0.025) was 0.09939 and the “Avg” value (WT in PC liposomes, 0.3 mM PA, delay time 0.05) was 0.06401. For the same compound, the “Avg” value (WT in PC liposomes, 0.3 mM PA, delay time 0.1) was 0.08141, the “Avg” value (WT in PC liposomes, 0.3 mM PA, delay time 0.25) was 0.0402 and the “Rate (stopped-flow fluorescence quenching rate)” value (WT in PC liposomes, 0.3 mM PA, delay time 0.25, listed as PA) was 0.04925 and 0.03838 and 0.03298. For the same compound, the “Avg” value (WT in PC liposomes, 0.3 mM PA, delay time 0.5) was 0.1212, the “Rate (stopped-flow fluorescence quenching rate)” value (WT in PC liposomes, 0.3 mM PA, delay time 0.5, listed as PA) was 0.0905 and 0.1754 and 0.09759 and the “Avg” value (WT in PC liposomes, 0.3 mM PA, delay time 1) was 0.07413. For the same compound, the “Avg” value (WT in PC liposomes, 0.3 mM PA, delay time 2.5) was 0.08146, the “Rate (stopped-flow fluorescence quenching rate)” value (WT in PC liposomes, 0.3 mM PA, delay time 2.5, listed as PA) was 0.09799 and 0.04957 and 0.09682 and the “Avg” value (WT in PC liposomes, 0.3 mM PA, delay time 5) was 0.09461. The “Avg” value [2] was 0, the “Rate (stopped-flow fluorescence quenching rate)” value [2] was 0 and the “Avg” value (WT in PC liposomes, 1 mM PA, delay time 0.01) was 0.0808. For the same compound, the “Rate (stopped-flow fluorescence quenching rate)” value (WT in PC liposomes, 1 mM PA, delay time 0.01, listed as PA) was 0.07542 and 0.09146 and 0.07551, the “Avg” value (WT in PC liposomes, 1 mM PA, delay time 0.025) was 0.1635 and the “Avg” value (WT in PC liposomes, 1 mM PA, delay time 0.05) was 0.08808. The “Rate (stopped-flow fluorescence quenching rate)” value (WT in PC liposomes, 1 mM PA, delay time 0.05, listed as PA) was 0.09304 and 0.1089 and 0.06236.

— article PMC9668969 (Nature Communications, 2022)
